“Also recorded” adds a separate entry of the source.
Assays:
Type in all cases: cell-based
[1] = system: A2185, A2352, HeLa and MCF7 cells; assay: Viability assay (methylene blue), four cancer lines; details: 72 hours, 1% FCS, in 3 or 4 cell lines, read-out: reduction of cell viability
Experimental: (§1) Four cancer cells, A2185, A2352, HeLa and MCF7 were grown in 1% FCS containing 10 μM of either EPE peptide, or Compounds Z56, Z1, Z2 or Z3, for 72 hours. Bars indicate average of 2 independent experiments done in triplicate ±SE. FIG. 8B presents dose response curves for Compounds Z56, Z1 and Z2. A2185 cells were grown in 1% FCS containing DMSO (0.1%) EPE or Scramble (Scr) peptide (10 μM), Compounds Z56, Z1, Z2, Z3 ([…]) or no treatment (FCS 1%) for 72 hours. Empty squares represent individual data points of proliferation. Full squares indicate average proliferation of 2 independent experiments done in triplicate ±SE. Bold horizontal line indicates arbitrary threshold (40%) for what is considered an active compound. Cell viability (as shown in FIGS. 8A and 8B) was measured by staining with methylene blue, and data presents proliferation normalized to DMSO control. […] Cell lysates were analyzed by Western blot with the corresponding antibodies. […]
(§2) Cells were seeded at low confluence into 24, 48 or 96-well plates in complete medium. […] Color was extracted by adding 0.1 M HCl (3 hours, 23° C.), and absorbance measured at 595 nm in an ELISA reader. For time course experiments, attached cells were fixed and measured at 0, 24, 48, 72 and 96 hours. […]

[2] = system: RSK1 phosphorylation (cytoplasmic target of ERK1/2); assay: Western blot, phosphorylated RSK1; details: 10 μM, 2 hours; TPA; A2185 or HeLa cells
Experimental: (§3) CoIP assay was conducted using αERK1 (C-terminus) antibodies conjugated to protein A/G agarose beads. The precipitates were analyzed by Western blot using the indicated antibodies. Whole cell lysates (WCL) and αIgG-mouse (IgG) are shown as controls. […] Cell extracts were analyzed by Western blot with the indicated antibodies. […] The same extracts described in (B) were subjected to Western blot analysis using αpAkt Abs. The closest molecular weight marker (kDa) is shown on the right of all relevant panels.
(§4) Bars indicate average of 2 independent experiments done in triplicate ±SE. […] Empty squares represent individual data points of proliferation. Full squares indicate average proliferation of 2 independent experiments done in triplicate ±SE. […] Cell viability (as shown in FIGS. 8A and 8B) was measured by staining with methylene blue, and data presents proliferation normalized to DMSO control. […] Cell lysates were analyzed by Western blot with the corresponding antibodies. Closest molecular marker is indicated at the right of each panel.
(§5) Preparation of Cellular Extracts and Western Blotting:
(§6) Cells were grown to 70% confluence and serum starved (0.1% FCS, 16 hours). After treatments, cells were rinsed twice with ice-cold PBS−/− and scraped into RIPA buffer. […]

[3] = system: Elk1 phosphorylation (nuclear target of ERK1/2); assay: Western blot, phosphorylated Elk1; details: 10 μM, 2 hours; TPA; melanoma cell line A2185
Experimental: as §3, §4, §5, §6

A2185 cells = assay: Viability assay, dose response in A2185 cells; details: 0.1-10 μM, 72 hours, 1% FCS
Experimental: as §1, §2

[4] = system: ERK1/2 nuclear translocation; assay: Determination of ERK1/2 localization by fluorescence microscopy after TPA stimulation; details: 10 μM, 2 hours, TPA 100 nM, 15 minutes
Procedure, shortened: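 HeLa, A2185 and A2352 melanoma cells treated with compounds for 2 h around TPA stimulation, then fixed (4% PFA), permeabilized and stained with anti-ERK antibodies, fluorescent secondaries and DAPI. Nuclear ERK1/2 localization scored by fluorescence microscopy (×40).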

O=C(OC1C=CS(=O)(=O)C1)c1ccccc1 (stereo not drawn) [Compound Z2]
cytotoxicity at 10 µM [1]: ~60%
phosphorylation of the cytosolic target RSK1/2 [2]: none of Compounds Z56, Z1, Z2 or Z3 affected
levels of phosphorylated Elk1 [3]: decreased significantly
cell viability, dose response curve (A2185 cells): dose dependent manner; also recorded: somewhat less potent than Compound Z56
nuclear accumulation of ERK1/2 upon TPA stimulation ([4]; A2185 and A2352 cells): inhibited
stimulated nuclear translocation of ERK1/2 ([4]; A2352, A2185 and HeLa cells): significantly reduced

Reference: patent US12286439B2, “Inhibitors of ERK nuclear translocation” (Yeda Research and Development Co. Ltd., priority 2018, dated 2025)
